Experimental findings from patent US20120142646A1, “Novel Compounds 621” (priority 2006, published 2012) are described below.

The assay addresses T1, Adrenergic β2 (Homo sapiens, UniProt P07550).
T1 construct: Adherent H292 cells were removed from tissue culture flasks; endogenous in cells; host or cells: H292 cells
Briefly: Adrenergic β2 mediated cAMP production in H292 cells (AlphaScreen cAMP detection). It is filed as cell-based. Details: key to β2 Int Act: fraction of formoterol maximum activity (formoterol = 1). The note with it: Intrinsic Activity as a fraction relative to the maximum activity determined for formoterol. The essentials: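 H292 cells pre-treated 10 min with rolipram (300 μM final), then given agonist for 60 min at room temperature in HBSS/10 mM HEPES pH 7.4, 1.6% DMSO final. Lysate cAMP measured by AlphaScreen against a cAMP standard curve. Four-parameter fit gives pEC50; intrinsic activity relative to formoterol maximum.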

T1 sequence (P07550 whole entry): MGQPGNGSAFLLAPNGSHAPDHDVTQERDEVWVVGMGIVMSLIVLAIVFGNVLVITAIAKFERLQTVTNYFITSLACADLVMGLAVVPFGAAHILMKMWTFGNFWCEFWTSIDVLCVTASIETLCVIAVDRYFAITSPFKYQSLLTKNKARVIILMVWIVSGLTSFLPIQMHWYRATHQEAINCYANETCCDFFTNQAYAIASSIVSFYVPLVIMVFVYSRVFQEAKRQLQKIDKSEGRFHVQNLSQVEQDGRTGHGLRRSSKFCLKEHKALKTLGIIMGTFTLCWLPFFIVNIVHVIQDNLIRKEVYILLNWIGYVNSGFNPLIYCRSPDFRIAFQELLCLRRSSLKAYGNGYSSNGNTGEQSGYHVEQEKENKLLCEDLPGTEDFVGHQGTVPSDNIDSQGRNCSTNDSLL

Consider `CCCC[C@@H](C)N(CCNCCc1ccc(O)c2c1OCC(=O)N2)C(=O)CCNCCc1ccc(Cl)cc1` [Example 45, (R)-3-(4-Chlorophenethylamino)-N-(hexan-2-yl)-N-(2-(2-(5-hydroxy-3-oxo-3,4-dihydro-2H-benzo[b][1,4]oxazin-8-yl)ethylamino)ethyl)propanamide bis(trifluoroacetate)], for which the “β2 Int Act” value is 0.89.
